Active and inactive are the calls of the source. The calls are words filed in the database; no cut-off is given here.
Columns and labels:
[1] = test system: MIA PaCa-2; assay: Induction of cell arrest in human MIA PaCa-2 cells assessed as accumulation of cells at G1 phase at 100 nM measured after 96 hrs by PI staining based flow cytometry (reference value: 64%); assay type: functional
[2] = Antiproliferative activity against HUVEC cells assessed as cell viability measured after 168 hrs incubation by SRB assay; assay type: toxicity, cell-based; conditions: human
[3] = Toxicity in BALB/c mouse xenografted with human MIA PaCa-2 cells assessed as pathological change in lung at 25 to 100 mg/kg, iv once daily for 25 consecutive day after 2 weeks of cells injection by H and E staining based optical microscopic analysis; assay type: organism-based; conditions: in vivo, 336 h, dose 25-100 mg/kg
[4] = Toxicity in BALB/c mouse xenografted with human MIA PaCa-2 cells assessed as pathological change in spleen at 25 to 100 mg/kg, iv once daily for 25 consecutive day after 2 weeks of cells injection by H and E staining based optical microscopic analysis; assay type: organism-based; conditions: in vivo, 336 h, dose 25-100 mg/kg
[5] = test system: MIA PaCa-2; assay: Induction of cell arrest in human MIA PaCa-2 cells assessed as late apoptotic cells at 200 nM measured after 4 days by Annexin V-FITC and propidium iodide (PI) staining based assay (reference value: 3.23%); assay type: functional; conditions: time 4 day
[6] = test system: MIA PaCa-2; assay: Induction of cell arrest in human MIA PaCa-2 cells assessed as late apoptotic cells at 25 nM measured after 4 days by Annexin V-FITC and propidium iodide (PI) staining based assay (reference value: 3.23%); assay type: functional; conditions: time 4 day
[7] = test system: MIA PaCa-2; assay: Effect on mitochondrial membrane potential loss in human MIA PaCa-2 cells assessed as change in membrane potential at 0.1 to 5 uM incubated for 96 hrs by JC-1 staining based flow cytometry analysis; assay type: functional, cell-based; conditions: dose 0.1-5 µM
[8] = test system: MIA PaCa-2; assay: Reduction in maximal oxygen consumption rate (OCR) in human MIA PaCa-2 cells incubated for 168 hrs; assay type: functional, cell-based; conditions: dose 1-200 nM
[9] = test system: MIA PaCa-2; assay: Reduction in basal oxygen consumption rate (OCR) in human MIA PaCa-2 cells incubated for 168 hrs; assay type: functional, cell-based; conditions: dose 1-200 nM
[10] = test system: MIA PaCa-2; assay: Down-regulation of CytB gene expression in human MIA PaCa-2 cells at 0.1 to 1 uM measured after 12 hrs by RT-qPCR analysis; assay type: functional, cell-based; conditions: dose 0.1-1 µM
[11] = test system: MIA PaCa-2; assay: Induction of cell arrest in human MIA PaCa-2 cells assessed as accumulation of cells at G1 phase at 25 nM measured after 96 hrs by PI staining based flow cytometry (reference value: 64%); assay type: functional
[12] = target: DNA-directed RNA polymerase, mitochondrial (Homo sapiens) (UniProt O00411); assay: Thermal stabilization of human POLRMT in human MIA PaCa-2 cells assessed as melting temperature at 100 uM measured after 30 mins incubation by Wester blot analysis (reference value: 42 degreeC); assay type: cell-based
[13] = test system: MIA PaCa-2; assay: Reduction in number of mitochondria in human MIA PaCa-2 cells measured after 96 hrs by Mito-Tracker Green and DAPI staining based assay; assay type: functional, cell-based; conditions: dose 10-1000 nM
[14] = test system: MIA PaCa-2; assay: Inhibition of RNA pol I in human MIA PaCa-2 cells assessed as effect on 18S RNA level at 0.1 to 1 uM measured after 12 hrs by RT-qPCR analysis; assay type: cell-based; conditions: dose 0.1-1 µM
[15] = Antiproliferative activity against human […] cells assessed as cell viability measured after 168 hrs incubation by SRB assay; assay type: functional, cell-based
[16] = target: DNA-directed RNA polymerase, mitochondrial (Homo sapiens) (UniProt O00411); assay: Inhibition of human POLRMT in human MIA PaCa-2 cells assessed as inhibition of mitochondria coded ubiquinone oxidoreductase core subunit 1 (ND I) transcript level measured after 12 hrs by RT-qPCR analysis; conditions: dose 0.001-5 µM
[17] = test system: MIA PaCa-2; assay: Effect on SDHB protein complexes in human MIA PaCa-2 cells reduction in NDUFB8 protein level at 0.01 to 10 uM by Western blot analysis; assay type: functional, cell-based; conditions: dose 0.01-10 µM
[18] = target: DNA-directed RNA polymerase, mitochondrial (Homo sapiens) (UniProt O00411); assay: Inhibition of human POLRMT in human MIA PaCa-2 cells assessed as mitochondria coded ubiquinone oxidoreductase core subunit 1 (ND I) transcript level at 500 nM measured after 24 hrs by RT-qPCR analysis relative to control; design: scale not given: the % may be the effect or the level left
[19] = test system: MIA PaCa-2; assay: Induction of cell arrest in human MIA PaCa-2 cells assessed as late apoptotic cells at 100 nM measured after 4 days by Annexin V-FITC and propidium iodide (PI) staining based assay (reference value: 3.23%); assay type: functional; conditions: time 4 day
[20] = test system: MIA PaCa-2; assay: Induction of senescence in human MIA PaCa-2 cells at 50 to 1000 nM measured after 96 hrs by beta-galactosidase staining based assay; assay type: functional, cell-based; conditions: dose 50-1000 nM
[21] = test system: MIA PaCa-2; assay: In vivo antitumor activity against human MIA PaCa-2 cells xenografted in BALB/c mouse assessed as reduction in tumor weight at 25 mg/kg, iv once daily for 25 consecutive day after 2 weeks of cells injection relative to control; assay type: functional; conditions: MIA PaCa-2, 600 h, time 25 day
[22] = test system: MIA PaCa-2; assay: Induction of cell arrest in human MIA PaCa-2 cells assessed as early apoptotic cells at 50 nM measured after 4 days by Annexin V-FITC and propidium iodide (PI) staining based assay (reference value: 1.07%); assay type: functional; conditions: time 4 day
[23] = test system: MIA PaCa-2; assay: Inhibition of mitochondria coded ubiquinone oxidoreductase core subunit 1 (ND I) transcript level in human MIA PaCa-2 cells measured after 12 to 36 hrs of compound removal by RT-qPCR analysis; assay type: functional; conditions: time 12-36 hrs
[24] = test system: MIA PaCa-2; assay: Induction of apoptosis in human MIA PaCa-2 cells xenografted in BALB/c mouse at 25 to 100 mg/kg, iv once daily for 25 consecutive day after 2 weeks of cells injection by TUNEL staining based analysis; assay type: functional, organism-based; conditions: dose 25-100 mg/kg
[25] = test system: MIA PaCa-2; assay: Induction of intracellular ROS generation in human MIA PaCa-2 cells at 0.1 to 5 uM incubated for 96 hrs by DCFH-DA staining based flow cytometry; assay type: functional, cell-based; conditions: dose 0.1-5 µM
[26] = Toxicity in BALB/c mouse xenografted with human MIA PaCa-2 cells assessed as change in body weight at 25 to 100 mg/kg, iv once daily for 25 consecutive day after 2 weeks of cells injection; assay type: organism-based; conditions: in vivo, 600 h, dose 25-100 mg/kg, time 25 day
[27] = test system: MIA PaCa-2; assay: Induction of cell arrest in human MIA PaCa-2 cells assessed as viable cells at 50 nM measured after 4 days by Annexin V-FITC and propidium iodide (PI) staining based assay (reference value: 94.9%); assay type: functional; conditions: MIA PaCa-2, 96 h, time 4 day, read-out: Activity
[28] = test system: MIA PaCa-2; assay: Induction of cell arrest in human MIA PaCa-2 cells assessed as accumulation of cells at S phase at 25 nM measured after 96 hrs by PI staining based flow cytometry (reference value: 16.8%); assay type: functional
[29] = test system: MIA PaCa-2; assay: Induction of cell arrest in human MIA PaCa-2 cells assessed as accumulation of cells at G2 phase at 100 nM measured after 96 hrs by PI staining based flow cytometry (reference value: 11.2%); assay type: functional
[30] = test system: MIA PaCa-2; assay: Effect on extracellular acidification rate (ECAR) in human MIA PaCa-2 cells at 1 to 200 nM incubated for 168 hrs; assay type: functional, cell-based; conditions: dose 1-200 nM
[31] = test system: MIA PaCa-2; assay: Induction of cell arrest in human MIA PaCa-2 cells assessed as necrotic cells at 100 nM measured after 4 days by Annexin V-FITC and propidium iodide (PI) staining based assay (reference value: 0.82%); assay type: functional; conditions: time 4 day

Sequence of DNA-directed RNA polymerase, mitochondrial (Homo sapiens) (O00411 whole entry): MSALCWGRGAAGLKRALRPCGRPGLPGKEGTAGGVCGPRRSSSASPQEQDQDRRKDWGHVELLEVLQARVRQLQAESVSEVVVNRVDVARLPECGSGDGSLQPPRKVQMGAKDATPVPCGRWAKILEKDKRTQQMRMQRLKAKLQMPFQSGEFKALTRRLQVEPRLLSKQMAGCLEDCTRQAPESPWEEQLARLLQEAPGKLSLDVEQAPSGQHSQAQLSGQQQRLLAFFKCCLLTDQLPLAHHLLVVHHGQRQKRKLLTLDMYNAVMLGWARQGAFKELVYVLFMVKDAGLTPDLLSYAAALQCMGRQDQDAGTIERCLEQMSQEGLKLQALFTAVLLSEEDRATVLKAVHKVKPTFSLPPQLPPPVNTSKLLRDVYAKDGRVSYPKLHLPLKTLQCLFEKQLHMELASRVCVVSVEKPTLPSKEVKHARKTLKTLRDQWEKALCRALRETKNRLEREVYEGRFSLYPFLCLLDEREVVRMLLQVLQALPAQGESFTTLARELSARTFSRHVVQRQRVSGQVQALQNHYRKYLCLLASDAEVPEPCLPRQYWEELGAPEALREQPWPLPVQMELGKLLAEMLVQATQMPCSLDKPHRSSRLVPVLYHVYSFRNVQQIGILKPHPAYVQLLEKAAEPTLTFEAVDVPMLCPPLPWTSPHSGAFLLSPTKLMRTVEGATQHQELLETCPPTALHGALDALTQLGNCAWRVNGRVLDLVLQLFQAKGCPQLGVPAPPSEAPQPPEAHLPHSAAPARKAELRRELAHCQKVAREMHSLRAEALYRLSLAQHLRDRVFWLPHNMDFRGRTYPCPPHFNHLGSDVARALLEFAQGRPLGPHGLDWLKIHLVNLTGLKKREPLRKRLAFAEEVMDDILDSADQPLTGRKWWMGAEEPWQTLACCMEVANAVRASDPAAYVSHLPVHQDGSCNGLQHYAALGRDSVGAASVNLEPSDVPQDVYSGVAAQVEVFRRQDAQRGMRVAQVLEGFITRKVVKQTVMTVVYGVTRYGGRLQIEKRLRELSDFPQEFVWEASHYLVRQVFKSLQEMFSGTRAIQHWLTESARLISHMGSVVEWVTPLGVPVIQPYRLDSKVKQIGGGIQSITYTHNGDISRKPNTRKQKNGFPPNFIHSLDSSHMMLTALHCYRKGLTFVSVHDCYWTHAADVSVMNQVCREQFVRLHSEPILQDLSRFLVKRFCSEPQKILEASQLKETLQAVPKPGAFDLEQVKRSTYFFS

Tm [12]: 57 °C | inhibition [16]: Dose-Dependent Effect | Activity [18]: 9%
Structure (SMILES): CCN(CC)C(=O)[C@@H](C)Oc1cc2oc(=O)cc(-c3ccccc3C)c2cc1F
Activity [1]: 63.6% | IC50 at 168 h [2]: > 50000 nM | Activity [3]: Non-Toxic | Activity [4]: Non-Toxic | Activity [5]: 3.94% | Activity [6]: 3.32% | Activity [7]: inactive | Activity [8]: Dose-Dependent Effect | Activity [9]: Dose-Dependent Effect | Activity [10]: Active | Activity [11]: 65.5% | Activity [13]: Dose-Dependent Effect | inhibition [14]: inactive | IC50 [15]: 4 nM | Activity [17]: inactive | Activity [19]: 3.61% | Activity [20]: inactive | inhibition in vivo at 25 mg/kg [21]: 45.2% | Activity [22]: 1.08% | inhibition [23]: Active | Activity [24]: inactive | Activity [25]: inactive | Activity [26]: Non-Toxic | viability at 0.05 µM [27]: 94.1% | Activity [28]: 14.2% | Activity [29]: 11.3% | Activity [30]: inactive | Activity [31]: 0.94%
